Laboratory results published in US12295936B2, “Immunomodulating urea azalides” (Zoetis Services LLC, priority 2020, dated 2025).
Read-outs that look alike come from different tables or passages of the source.

System: BRD pathogens, M. haemolytica and P. multocida
Assay: MIC screening panel of BRD pathogens (antibacterial / non-antibacterial)
[1] = read-out: antibacterial / non-antibacterial (MIC for the BRD pathogens)

Compound | MIC [1] | further results
CC[C@H]1OC(=O)[C@H](C)[C@@H](O)[C@H](C)[C@@H](O[C@@H]2O[C@H](C)C[C@H](N(C)C(=O)Nc3ccc(F)cc3)[C@H]2O)[C@](C)(O)C[C@@H](C)CN[C@H](C)[C@@H](O)[C@]1(C)O [Example A-18, 1-((2S,3R,4S,6R)-2-(((2R,3S,4R,5R,8R,10R,11R,12S,13S,14R)-2-ethyl-3,4,10,13-tetrahydroxy-3,5,8,10,12,14-hexamethyl-15-oxo-1-oxa-6-azacyclopentadecan-11-yl)oxy)-3-hydroxy-6-methyltetrahydro-2H-pyran-4-yl)-3-(4-fluorophenyl)-1-methylurea] | > 64 µg/mL | 
CCOC[C@]1(O)[C@H](C)O[C@@H](O[C@H]2[C@H](C)[C@@H](O[C@@H]3O[C@H](C)C[C@H](N(C)C(=O)Nc4ccccc4)[C@H]3O)[C@](C)(O)C[C@@H](C)CN[C@H](C)[C@@H](O)[C@](C)(O)[C@@H](CC)OC(=O)[C@@H]2C)C[C@@]1(C)OC [Example C-1, 1-((2S,3R,4S,6R)-2-(((2R,3S,4R,5R,8R,10R,11R,12S,13S,14R)-13-(((2R,4R,5S,6S)-5-(ethoxymethyl)-5-hydroxy-4-methoxy-4,6-dimethyltetrahydro-2H-pyran-2-yl)oxy)-2-ethyl-3,4,10-trihydroxy-3,5,8,10,12,14-hexamethyl-15-oxo-1-oxa-6-azacyclopentadecan-11-yl)oxy)-3-hydroxy-6-methyltetrahydro-2H-pyran-4-yl)-1-methyl-3-phenylurea] | > 64 µg/mL | 
CC[C@H]1OC(=O)[C@H](C)[C@@H](O[C@H]2C[C@@](C)(OC)[C@](O)(CN3CCSCC3)[C@H](C)O2)[C@H](C)[C@@H](O[C@@H]2O[C@H](C)C[C@H](N(C)C(=O)N(C)c3ccccc3)[C@H]2O)[C@](C)(O)C[C@@H](C)CN[C@H](C)[C@@H](O)[C@]1(C)O [Example J-11, 1-((2S,3R,4S,6R)-2-(((2R,3S,4R,5R,8R,10R,11R,12S,13S,14R)-2-ethyl-3,4,10-trihydroxy-13-(((2R,4R,5S,6S)-5-hydroxy-4-methoxy-4,6-dimethyl-5-(thiomorpholinomethyl)tetrahydro-2H-pyran-2-yl)oxy)-3,5,8,10,12,14-hexamethyl-15-oxo-1-oxa-6-azacyclopentadecan-11-yl)oxy)-3-hydroxy-6-methyltetrahydro-2H-pyran-4-yl)-1,3-dimethyl-3-phenylurea] |  | MIC (read-out: MIC ≤64 μg/mL for at least one of the bacterial strains (flag * at Ex #)): < 64 µg/mL
CC[C@H]1OC(=O)[C@H](C)[C@@H](O)[C@H](C)[C@@H](O[C@@H]2O[C@H](C)C[C@H](N(C)C(=O)Nc3ccccc3C(F)(F)F)[C@H]2O)[C@](C)(O)C[C@@H](C)CN[C@H](C)[C@@H](O)[C@]1(C)O [Example A-16, 1-((2S,3R,4S,6R)-2-(((2R,3S,4R,5R,8R,10R,11R,12S,13S,14R)-2-ethyl-3,4,10,13-tetrahydroxy-3,5,8,10,12,14-hexamethyl-15-oxo-1-oxa-6-azacyclopentadecan-11-yl)oxy)-3-hydroxy-6-methyltetrahydro-2H-pyran-4-yl)-1-methyl-3-(2-(trifluoromethyl)phenyl)urea] | > 64 µg/mL | 
1-((2S,3R,4S,6R)-2-(((2R,3S,4R,5R,8R,10R,11R,12S,13S,14R)-2-ethyl-3,4,10-trihydroxy-13-(((2R,4R,5S,6S)-5-hydroxy-4-methoxy-4,6-dimethyl-5-((4-(trifluoromethyl)piperazin-1-yl)methyl)tetrahydro-2H-pyran-2-yl)oxy)-3,5,8,10,12,14-hexamethyl-15-oxo-1-oxa-6-azacyclopentadecan-11-yl)oxy)-3-hydroxy-6-methyltetrahydro-2H-pyran-4-yl)-1,3-dimethyl-3-phenylurea [Example J-14] |  | MIC ≤64 μg/mL for at least one of the bacterial strains (flag * at Ex #) (Table J, Formula (1-A1b) compounds): J-14* (*MIC ≤64 μg/mL for at least one of the bacterial strains)
CC[C@H]1OC(=O)[C@H](C)[C@@H](O[C@H]2C[C@@](C)(OC)[C@](O)(Cn3cccn3)[C@H](C)O2)[C@H](C)[C@@H](O[C@@H]2O[C@H](C)C[C@H](N(C)C(=O)N(C)c3ccccc3)[C@H]2O)[C@](C)(O)C[C@@H](C)CN[C@H](C)[C@@H](O)[C@]1(C)O [Example J-23, 1-((2S,3R,4S,6R)-2-(((2R,3S,4R,5R,8R,10R,11R,12S,13S,14R)-13-(((2R,4R,5S,6S)-5-((1H-pyrazol-1-yl)methyl)-5-hydroxy-4-methoxy-4,6-dimethyltetrahydro-2H-pyran-2-yl)oxy)-2-ethyl-3,4,10-trihydroxy-3,5,8,10,12,14-hexamethyl-15-oxo-1-oxa-6-azacyclopentadecan-11-yl)oxy)-3-hydroxy-6-methyltetrahydro-2H-pyran-4-yl)-1,3-dimethyl-3-phenylurea] | > 64 µg/mL | 
CCCNC(=O)N(C)[C@H]1C[C@@H](C)O[C@@H](O[C@@H]2[C@@H](C)[C@H](O[C@H]3C[C@@](C)(OC)[C@](O)(CNC4CC4)[C@H](C)O3)[C@@H](C)C(=O)O[C@H](CC)[C@@](C)(O)[C@H](O)[C@@H](C)NC[C@H](C)C[C@@]2(C)O)[C@@H]1O [Example H-93, 1-((2S,3R,4S,6R)-2-(((2R,3S,4R,5R,8R,10R,11R,12S,13S,14R)-13-(((2R,4R,5S,6S)-5-((cyclopropylamino)methyl)-5-hydroxy-4-methoxy-4,6-dimethyltetrahydro-2H-pyran-2-yl)oxy)-2-ethyl-3,4,10-trihydroxy-3,5,8,10,12,14-hexamethyl-15-oxo-1-oxa-6-azacyclopentadecan-11-yl)oxy)-3-hydroxy-6-methyltetrahydro-2H-pyran-4-yl)-1-methyl-3-propylurea] | > 64 µg/mL | 
CC[C@H]1OC(=O)[C@H](C)[C@@H](O[C@H]2C[C@@](C)(OC)[C@](O)(CN(CCN3CCOCC3)C(=O)NC3CC3)[C@H](C)O2)[C@H](C)[C@@H](O[C@@H]2O[C@H](C)C[C@H](N(C)C(=O)NC3CC3)[C@H]2O)[C@](C)(O)C[C@@H](C)CN[C@H](C)[C@@H](O)[C@]1(C)O [Example H-1, 3-cyclopropyl-1-((2S,3R,4S,6R)-2-(((2R,3S,4R,5R,8R,10R,11R,12S,13S,14R)-13-(((2R,4R,5S,6S)-5-((3-cyclopropyl-1-(2-morpholinoethyl)ureido)methyl)-5-hydroxy-4-methoxy-4,6-dimethyltetrahydro-2H-pyran-2-yl)oxy)-2-ethyl-3,4,10-trihydroxy-3,5,8,10,12,14-hexamethyl-15-oxo-1-oxa-6-azacyclopentadecan-11-yl)oxy)-3-hydroxy-6-methyltetrahydro-2H-pyran-4-yl)-1-methylurea] | > 64 µg/mL | 
CC[C@H]1OC(=O)[C@H](C)[C@@H](O)[C@H](C)[C@@H](O[C@@H]2O[C@H](C)C[C@H](N(C)C(=O)Nc3ccc(C)cc3)[C@H]2O)[C@](C)(O)C[C@@H](C)CN[C@H](C)[C@@H](O)[C@]1(C)O [Example A-24, 1-((2S,3R,4S,6R)-2-(((2R,3S,4R,5R,8R,10R,11R,12S,13S,14R)-2-ethyl-3,4,10,13-tetrahydroxy-3,5,8,10,12,14-hexamethyl-15-oxo-1-oxa-6-azacyclopentadecan-11-yl)oxy)-3-hydroxy-6-methyltetrahydro-2H-pyran-4-yl)-1-methyl-3-(p-tolyl)urea] | > 64 µg/mL | 
CC[C@H]1OC(=O)[C@H](C)[C@@H](O[C@H]2C[C@@](C)(OC)[C@](O)(CN3CCC3)[C@H](C)O2)[C@H](C)[C@@H](O[C@@H]2O[C@H](C)C[C@H](N(C)C(=O)N(C)c3ccccc3)[C@H]2O)[C@](C)(O)C[C@@H](C)CN[C@H](C)[C@@H](O)[C@]1(C)O [Example J-22, 1-((2S,3R,4S,6R)-2-(((2R,3S,4R,5R,8R,10R,11R,12S,13S,14R)-13-(((2R,4R,5S,6S)-5-(azetidin-1-ylmethyl)-5-hydroxy-4-methoxy-4,6-dimethyltetrahydro-2H-pyran-2-yl)oxy)-2-ethyl-3,4,10-trihydroxy-3,5,8,10,12,14-hexamethyl-15-oxo-1-oxa-6-azacyclopentadecan-11-yl)oxy)-3-hydroxy-6-methyltetrahydro-2H-pyran-4-yl)-1,3-dimethyl-3-phenylurea] | > 64 µg/mL | 
CCCN(C[C@]1(O)[C@H](C)O[C@@H](O[C@H]2[C@H](C)[C@@H](O[C@@H]3O[C@H](C)C[C@H](N(C)C(=O)N(C)c4ccccc4)[C@H]3O)[C@](C)(O)C[C@@H](C)CN[C@H](C)[C@@H](O)[C@](C)(O)[C@@H](CC)OC(=O)[C@@H]2C)C[C@@]1(C)OC)C(=O)N(C)c1ccccc1 [Example H-63, 1-((2S,3R,4S,6R)-2-(((2R,3S,4R,5R,8R,10R,11R,12S,13S,14R)-2-ethyl-3,4,10-trihydroxy-13-(((2R,4R,5S,6S)-5-hydroxy-4-methoxy-4,6-dimethyl-5-((3-methyl-3-phenyl-1-propylureido)methyl)tetrahydro-2H-pyran-2-yl)oxy)-3,5,8,10,12,14-hexamethyl-15-oxo-1-oxa-6-azacyclopentadecan-11-yl)oxy)-3-hydroxy-6-methyltetrahydro-2H-pyran-4-yl)-1,3-dimethyl-3-phenylurea] | > 64 µg/mL | 
CC[C@H]1OC(=O)[C@H](C)[C@@H](O[C@H]2C[C@@](C)(OC)[C@](O)(CC#N)[C@H](C)O2)[C@H](C)[C@@H](O[C@@H]2O[C@H](C)C[C@H](N(C)C(=O)Nc3ccccc3)[C@H]2O)[C@](C)(O)C[C@@H](C)CN[C@H](C)[C@@H](O)[C@]1(C)O [Example G-1, 1-((2S,3R,4S,6R)-2-(((2R,3S,4R,5R,8R,10R,11R,12S,13S,14R)-13-(((2R,4R,5S,6S)-5-(cyanomethyl)-5-hydroxy-4-methoxy-4,6-dimethyltetrahydro-2H-pyran-2-yl)oxy)-2-ethyl-3,4,10-trihydroxy-3,5,8,10,12,14-hexamethyl-15-oxo-1-oxa-6-azacyclopentadecan-11-yl)oxy)-3-hydroxy-6-methyltetrahydro-2H-pyran-4-yl)-1-methyl-3-phenylurea] | > 64 µg/mL | 
CC[C@H]1OC(=O)[C@H](C)[C@@H](O)[C@H](C)[C@@H](O[C@@H]2O[C@H](C)C[C@H](N(C)C(=O)Nc3cccnc3)[C@H]2O)[C@](C)(O)C[C@@H](C)CN[C@H](C)[C@@H](O)[C@]1(C)O [Example A-4, 1-((2S,3R,4S,6R)-2-(((2R,3S,4R,5R,8R,10R,11R,12S,13S,14R)-2-ethyl-3,4,10,13-tetrahydroxy-3,5,8,10,12,14-hexamethyl-15-oxo-1-oxa-6-azacyclopentadecan-11-yl)oxy)-3-hydroxy-6-methyltetrahydro-2H-pyran-4-yl)-1-methyl-3-(pyridin-3-yl)urea] | > 64 µg/mL | 
